In brackets after ≈: the same amount, converted by molar mass.
Each compound was assayed on M. tuberculosis Spec. 210 (resistant strain isolated from TB patients) (assay: Tuberculostatic activity, twofold serial microdilution with Alamar Blue). Conditions: Mycobacterium tuberculosis, 504 h, read-out: MIC Spec. 210.
Assay type: cell-based

| Compound | MIC |
| --- | --- |
| NC(=NNC(=S)N1CCOCC1)c1cccc(N2CCCC2)n1 [Compound 4, N’-(Morpholine-4-Carbonothioyl)-6-(Pyrrolidin-1-Yl)Picolinohydrazonamide] | 4 mg/L (≈ 12 µM) |
| NC(=NNC(=S)N1CCCC1)c1cccc(N2CCCC2)n1 [Compound 5, 6-(Pyrrolidin-1-Yl)-N’-(Pyrrolidine-1-Carbonothioyl)Picolinohydrazonamide] | 1 mg/L (≈ 3.14 µM) |
| NC(=NNC(=S)N1CCOCC1)c1cccc(N2CCCCC2)n1 [Compound 6, N’-(Morpholine-4-Carbonothioyl)-6-(Piperidin-1-Yl)Picolinohydrazonamide] | 1 mg/L (≈ 2.87 µM) |
| NC(=NNC(=S)N1CCCC1)c1cccc(N2CCCCC2)n1 [Compound 7, 6-(Piperidin-1-Yl)-N’-(Pyrrolidine-1-Carbonothioyl)Picolinohydrazonamide] | 0.5 mg/L (≈ 1.5 µM) |
| NC(=NNC(=S)N1CCOCC1)c1cccc(Oc2ccccc2)n1 [Compound 8, N’-(Morpholine-4-Carbonothioyl)-6-Phenoxypicolinohydrazonamide] | 4 mg/L (≈ 11.2 µM) |
| NC(=NNC(=S)N1CCCC1)c1cccc(Oc2ccccc2)n1 [Compound 9, 6-Phenoxy-N’-(Pyrrolidine-1-Carbonothioyl)Picolinohydrazonamide] | 4 mg/L (≈ 11.7 µM) |
| NNC(=O)c1ccncc1 [INH, isoniazid, reference compound] | 8 mg/L (≈ 58.3 µM) |
